Source: patent publication US10849902B2, “Medicament for treating heart failure” (TAKEDA PHARMACEUTICAL COMPANY LIMITED, priority 2015, dated 2020)

Legend:
[1] = tested on: transverse aortic constriction (TAC) model; conditions: Non patent literature 5; cited from earlier work
[2] = drug administered after the cardiac load is given; Non patent literature 6; cited from earlier work
CSQ-Tg mice [3] = experiment: Atrial weight reduction effect in heart failure model animal (CSQ-Tg mice); type: in vivo; conditions: CSQ-Tg male mice, 5 weeks old, 30 mg/kg body weight/day oral QD for 14 days, n=7; p<0.05 vs vehicle (t-test)
Method: (§1) Calsequestrin (CSQ) cardiac specific transgenic mice (CSQ-Tg mice), which were reported in Larry R. Jones et al., J. Clin. Invest. 101: 1385-1393, 1998, were obtained from University of Pennsylvania, breeded in our company and put in use. In tests, using male and female mice, administration of a medicament was started on and after the mice reached 5 weeks old. The animals were raised in the conditions: room temperature: 20 to 26° c., humidity: 40 to 70%, illumination time: 12 hours/day (7:00-19:00) by giving a solid feed (CE-2, manufactured by CLEA Japan, Inc.) and tap water. In the CSQ-Tg mice, as already reported, Ca^2+ intracellular release was suppressed; myocardial contraction declined and cardiac output decreased. Cardiac hypertrophy and heart failure developed.
In this example, using CSQ-Tg mice as a heart failure model animal, the atrial weight reduction effect of compound A′ was evaluated.
Compound A′ was suspended (10 mL/kg) in a 0.5% aqueous methylcellulose solution (hereinafter in Examples, sometimes referred to as a “vehicle”) and orally administered to CSQ-Tg male mice of 5 weeks old with heart failure in a dosage of 30 mg/kg body weight/day once per day (QD) for 14 days (n=7). To negative control (vehicle administration group) mice, a 0.5% aqueous methylcellulose solution was administered (n=9). Thereafter, the atrial weight of the mice was measured.

CSQ-Tg mice [4] = experiment: Improvement effect on left ventricular hypertrophy and lung weight increase in CSQ-Tg mice; type: in vivo; conditions: CSQ-Tg female mice, 5 weeks old, 30 mg/kg body weight/day oral QD for 14 days, n=10; p<0.05 vs vehicle (t-test)
Method: as §1
In this example, the effect of compound A′ in improving left ventricular hypertrophy and lung weight increase caused by heart failure was examined.
Compound A′ was suspended in a 0.5% aqueous methylcellulose solution (10 mL/kg) and orally administered to CSQ-Tg female mice of 5 weeks old with heart failure in a dosage of 30 mg/kg body weight/day once per day (QD) for 14 days (n=10). […] Thereafter, lung weight (Lung), left-ventricle weight (LV) and body weight (BW) were individually measured and were standardized with the BW.

CSQ-Tg mice [5] = experiment: Effect on survival rate of heart failure model animals (CSQ-Tg mice); type: in vivo; conditions: CSQ-Tg female mice, 5 weeks old, 30 mg/kg body weight/day oral QD for 30 days, n=30; log-rank test p<0.001 vs vehicle
Method: as §1
In this example, effect of compound A′ on survival rate of heart failure model animals was examined.
Compound A′ was orally administered to CSQ-Tg female mice (n=30) of 5 weeks old in a dosage of 30 mg/kg body weight/day once per day (QD) for 30 days. To negative control (vehicle administration group) mice, a 0.5% aqueous methylcellulose solution was administered (n=30).

Structure (SMILES) | Cardiac hypertrophy [1] | Cardiac hypofunction [2] | Left atrial weight, average value (CSQ-Tg mice [3]) | LV/BW (left-ventricle weight standardized with body weight), average value ± standard deviation (CSQ-Tg mice [4]) | Lung/BW (lung weight standardized with body weight), average value ± standard deviation (CSQ-Tg mice [4]) | Survival rate (Kaplan-Meier, FIG. 1) (CSQ-Tg mice [5])
C[C@@H](N[C@H]1CCCC[C@@H]1NC(=O)c1ccc(Cl)cc1)c1cccc2ccccc12 [Calhex231] | cardiac hypertrophy is improved | cardiac hypofunction is not improved |  |  |  | 
CCc1ccc(C(CC)(CC)NC(=O)c2c(C)nn3c2N[C@@H](c2ccccc2)CC3(C)C)cc1 [Compound A′] |  |  | 8.4 mg | 7.9 ± 1.0 | 6.8 ± 1.3 | significantly improved
